logP and chromatographic logP data for 32 compounds are collected here from US20100081679A1, “DIAMINOPYRIMIDINES AS FUNGICIDES” (Bayer CropScience AG, priority 2007, published 2010).

The data set is described as follows: logP determination via retention times, calibrated with unbranched alkan-2-ones. Type of data set: physicochemical. The conditions noted are these: for chromatographic logP: pH 2.3, read-out: logP (pH2.3).
[1] abbreviates: method *: HPLC, reversed-phase C 18, 40° C., mobile phase 0.1% aqueous formic acid and acetonitrile, linear gradient from 10% to 95% acetonitrile.
Where [2] appears, read: method *: HPLC reversed-phase C 18, temperature 40° C., mobile phase 0.1% aqueous formic acid and acetonitrile, linear gradient 10% to 95% acetonitrile.
Where [3] appears, read: HPLC reversed-phase C 18, EEC Directive 79/831 Annex V.A8, method *: 40° C., 0.1% aqueous formic acid and acetonitrile, linear gradient 10% to 95% acetonitrile.
Where [4] appears, read: HPLC on reversed-phase C18, method *: 40° C., 0.1% aqueous formic acid and acetonitrile, linear gradient 10% to 95% acetonitrile.
[5] abbreviates: HPLC on reversed-phase C 18, EEC Directive 79/831 Annex V.A8, method *: 40° C., 0.1% aqueous formic acid and acetonitrile, linear gradient 10% to 95% acetonitrile.
Setting [6] is: method *: HPLC reversed-phase C18, 40° C., 0.1% aqueous formic acid and acetonitrile, linear gradient 10% to 95% acetonitrile.

Marks after values point to notes of the source that are not given here.

For `CCCCOc1cc(Nc2ncc(Cl)c(NC3CC3)n2)ccc1C` [compound 991], the logP under setting [1] was 3.13*.

On to `CC(=O)Nc1cc(Nc2ncc(F)c(NC3CC3)n2)ccc1C` [compound 601], for which the logP under setting [2] was 1.15*.

Consider `CCSCc1cccc(Nc2ncc(Cl)c(NC3CC3)n2)c1` [compound 986], for which the logP under setting [1] is listed as 2.55*.

In the case of `COc1cc(CC#N)ccc1Nc1ncc(Br)c(NC2CC2)n1` [compound 818], the logP under setting [3] is on record as 1.99*.

As to `OC(c1cccc(Nc2ncc(C(F)(F)F)c(NCC3CC3)n2)c1)C(F)(F)F` (stereo not drawn) [compound 667], the logP under setting [4] was 2.82*.

Regarding `Clc1ncc(Cl)c(NC2CC2)n1` [2,5-Dichloro-N-cyclopropylpyrimidine-4-amine], the chromatographic logP amounted to 1.79.

As to `CCCNS(=O)(=O)Cc1cccc(Nc2ncc(Cl)c(NC3CC3)n2)c1` [compound 335], for the setting “HPLC on reversed-phase C18, method *: 40° C., mobile phase 0.1% aqueous formic acid and acetonitrile, linear gradient 10% to 95% acetonitrile”, the logP is on record as 1.81*.

On to `CN(C)S(=O)(=O)Oc1cccc(Nc2ncc(Br)c(NCC3CC3)n2)c1` [compound 485], for which, under setting [5], the logP is recorded as 2.51*.

For `CNC(=O)Oc1cccc(Nc2ncc(Cl)c(NCC3CC3)n2)c1` [compound 514], under setting [5], the logP is recorded as 1.61*.

As to `COc1cccc(Nc2ncc(C#N)c(NC3CC3)n2)c1` [compound 604], the logP under setting [2] is given as 2.48*.

With `CC(C)(CF)C(=O)Nc1ccc(Nc2ncc(Cl)c(NC3CC3)n2)cc1` [Example 67], under setting [6], the logP was 1.74*.

As for `COC(=O)c1ccc(Nc2ncc(Cl)c(NC3CC3)n2)cc1Cl` [compound 378], the logP under setting [6] is reported as 2.91*.

As to `CCOC(=O)Nc1cccc(Nc2ncc(Br)c(NC3CC3)n2)c1` [compound 385], the logP under setting [6] is 1.83*.

Consider `CSc1ccc(Nc2ncc(Cl)c(NC3CC3)n2)cc1` [Example 69], for which, under setting [6], the logP is 2.1*.

`COCc1cccc(Nc2ncc(Cl)c(NC3CC3(C)C)n2)c1` (stereo not drawn) [compound 1028]: the logP was 2.37** (method **: HPLC, reversed-phase C 18, 43° C., mobile phase 0.1% aqueous phosphoric acid and acetonitrile, linear gradient from 10% to 95% acetonitrile); 2.36*; under setting [1].

For the compound `COc1cc(Nc2ncc(Br)c(NC3CC3)n2)ccc1F` [compound 568], the logP under setting [2] was 2.05*.

Take `CC(=O)Cc1cccc(Nc2ncc(Cl)c(NC3CC3)n2)c1` [compound 780]: the logP under setting [3] is given as 1.51*.

Consider `CCc1cccc(Nc2ncc(Br)c(NC3CC3)n2)c1` [compound 775], for which the logP under setting [3] was 2.44*.

`FC(F)(F)c1cnc(Nc2ccccc2)nc1NC1CC1` [Example 93]: the logP (method **: HPLC reversed-phase C 18, 43° C., 0.1% aqueous phosphoric acid and acetonitrile, linear gradient 10% to 95% acetonitrile) is listed as 2.62**.

As for `CN(C)C(=O)c1ccc(Nc2ncc(C(F)(F)F)c(NC3CC3)n2)cc1` [compound 824], the logP under setting [3] is on record as 2.08*.

As to `O=c1[nH]c(Nc2ccccc2)ncc1Cl` [2-Anilino-5-chloropyrimidin-4(3H)-one], the chromatographic logP was 1.56.

In the case of `CNS(=O)(=O)Cc1ccc(Nc2ncc(Br)c(NC3CC3)n2)cc1` [compound 757], the logP under setting [4] is reported as 1.51*.

As for `Brc1cnc(Nc2ccc(-c3nccs3)cc2)nc1NC1CC1` [compound 251], the logP (HPLC on reversed-phase C18 column (EEC Directive 79/831 Annex V.A8), method *: 40° C., 0.1% aqueous formic acid and acetonitrile, linear gradient 10% to 95% acetonitrile) was 2.49*.

As for `CCC(=O)Nc1cccc(Nc2ncc(Br)c(NC3CC3)n2)c1` [compound 381], under setting [6], the logP is 1.54*.

Consider `CC(C)Oc1ccc(Nc2ncc(Cl)c(NC3CC3)n2)cc1OC(C)C` [compound 992], for which the logP under setting [1] is on record as 2.42*.

For `CS(=O)(=O)c1ccc(Nc2ncc(Cl)c(NCC3CC3)n2)cc1` [compound 670], under setting [4], the logP was 1.97*.

As to `CCCSc1cccc(Nc2ncc(Br)c(NC3CC3)n2)c1` [compound 706], the logP under setting [4] is 3.49*.

Take `COc1ccc(Nc2ncc(Cl)c(NCC3CC3)n2)cc1` [compound 669]: the logP under setting [4] was 1.73*.

As for `Cc1ccc(C)c(Nc2ncc(Cl)c(NC3CC3)n2)c1` [compound 935], under setting [4], the logP was 1.83*.

Turning to `FC(F)c1cnc(Nc2ccccc2)nc1NC1CC1` [compound 722], under setting [4], the logP is 1.56*.

With `CNC(=O)Oc1cccc(Nc2ncc(C#N)c(NC3CC3)n2)c1` [compound 611], the logP under setting [2] is reported as 1.92*.

`COC(=O)Nc1ccc(Nc2ncc(Cl)c(NC3CC3)n2)c(F)c1` [compound 530]: under setting [5], the logP was 1.56*.
